Measured values taken from EP1724268A1, “COMPOUND HAVING TGF-BETA INHIBITORY ACTIVITY AND PHARMACEUTICAL COMPOSITION CONTAINING SAME” (KIRIN BEER KABUSHIKI KAISHA, priority 2004, dated 2005).
Like-named read-outs stand apart in the source and are kept apart here.

System: TGFβ signal
Assay: TGFβ signal inhibitory activity, (SBE)4-Luc reporter in A549 cells (Test Examples 1A and 1B)
Type: cell-based, human
Conditions: Homo sapiens, A549, read-out: TGFβ inhibition rate, %
Summary of the method: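 Stable A549 line carrying (SBE)4-Luc Smad3-binding reporter treated with compound plus TGFβ-1 (2 ng/ml) for 4 hr; luciferase read by chemiluminescence. Percent inhibition relative to TGFβ-only and untreated cells, tested at 3 µM and 10 µM, some also at 1 µM.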

[1] = 3 µM, compounds of Reference Examples (Test Example 1B)
[2] = 10 µM, compounds of Reference Examples (Test Example 1B)
[3] = test compound 3 µM, Reference Examples, Table 1B
[4] = test compound 10 µM, Reference Examples, Table 1B
[5] = test compound 3 µM, TGFβ-1 2 ng/ml, 4 hr, Table 1A
[6] = test compound 10 µM, TGFβ-1 2 ng/ml, 4 hr, Table 1A

## COc1cc2c(Oc3cc(C)c(C)nc3-c3ccccn3)ccnc2cc1OCC(O)CO (centres unmarked) [Compound r342]
[1]
  inhibition at 3 µM: 89%

## COc1cc2c(Oc3cc4ccccc4nc3C)ccnc2cc1OCCCNC(=N)N [Compound r377]
[1]
  inhibition at 3 µM: 93%
[2]
  inhibition at 10 µM: 100%

## CCOC(=O)c1cc(Br)ccc1Oc1ccnc2cc(OC)c(OC)cc12 [Compound r85]
[3]
  inhibition at 3 µM: 87%
[4]
  inhibition at 10 µM: 100%

## Cc1cc(Oc2ccnc3cc(O)ccc23)c(-c2ccccn2)nc1C [Compound 140, 4-(5,6-Dimethyl-[2,2']bipyridinyl-3-yloxy)-quinolin-7-ol]
[5]
  inhibition at 3 µM: 99%
[6]
  inhibition at 10 µM: 100%

## COc1cc2c(Oc3cc4ccccc4nc3C)ccnc2cc1CCCO [Compound r411]
[1]
  inhibition at 3 µM: 50%
[2]
  inhibition at 10 µM: 85%

## COc1cc2nccc(Oc3ccccc3C(=O)OCCC(C)C)c2cc1OC [Compound r99]
[3]
  inhibition at 3 µM: 7%
[4]
  inhibition at 10 µM: 92%

## Cc1cc(Oc2ccnc3ccc(Cl)c(Cl)c23)c(-c2ccccn2)nc1C [Compound 130, 3-(5,6-Dichloro-quinolin-4-yloxy)-5,6-dimethyl-[2,2']bipyridine]
[5]
  inhibition at 3 µM: 100%
[6]
  inhibition at 10 µM: 100%

## COc1cc2c(Oc3ccc(C)cc3C(=O)c3ccccc3)ccnc2cc1OCCCN1CCNCC1 [r137]
[3]
  inhibition at 3 µM: 100%
[4]
  inhibition at 10 µM: 100%

## COc1cc2c(Oc3ccc(C)cc3C(=O)c3ccccc3)ccnc2cc1OCC(O)CN1CCNCC1 (centres unmarked) [Compound r157]
[3]
  inhibition at 3 µM: 100%
[4]
  inhibition at 10 µM: 100%

## COc1cc2nccc(Oc3ccc(C)nc3-c3cccnc3)c2cc1OC [Compound r262]
[1]
  inhibition at 3 µM: 91%
[2]
  inhibition at 10 µM: 100%

## COc1cncc(-c2nc(C)c(C)cc2Oc2ccnc3cc(OC)c(OC)cc23)c1 [Compound 45, 3-(6,7-Dimethoxy-quinolin-4-yloxy)-5'-methoxy-5,6-dimethyl-[2,3']bipyridine]
[5]
  inhibition at 3 µM: 89%
[6]
  inhibition at 10 µM: 100%

## COc1cc2nccc(Oc3ccc(C)nc3C)c2cc1OC [Compound r209]
[1]
  inhibition at 3 µM: 99%
[2]
  inhibition at 10 µM: 100%

## COc1cc2c(Oc3cc(C)c(C)nc3-c3cccc(C)n3)ccnc2cc1OCCCl [Compound r465]
[1]
  inhibition at 3 µM: 98%
[2]
  inhibition at 10 µM: 100%

## CCOC(=O)C1CCCN(CCOc2cc3nccc(Oc4cc5ccccc5nc4C)c3cc2OC)C1 (centres unmarked) [Compound r361]
[1]
  inhibition at 3 µM: 96%
[2]
  inhibition at 10 µM: 100%

## CCc1ccc(Oc2ccnc3cc(OC)c(OC)cc23)c(-c2cccnc2)n1 [Compound 46, 3-(6,7-Dimethoxy-quinolin-4-yloxy)-6-ethyl-[2,3']bipyridine]
[5]
  inhibition at 3 µM: 100%
[6]
  inhibition at 10 µM: 100%

## COc1cc2nccc(Oc3ccc(C)cc3C(=O)c3ccc(C(C)(C)C)cc3)c2cc1OC [r73]
[3]
  inhibition at 3 µM: 24%
[4]
  inhibition at 10 µM: 81%

## COc1cc2c(Oc3cc4cccnc4nc3-c3ccccc3)ccnc2cc1OCCO [Compound 178, 2-[6-Methoxy-4-(2-phenyl-[1,8]naphthyridin-3-yloxy)-quinolin-7-yloxy]-ethanol]
[5]
  inhibition at 3 µM: 100%
[6]
  inhibition at 10 µM: 100%

## COc1cc2nccc(Oc3ccc(C)nc3-c3cccc(C#N)c3)c2cc1OC [Compound r234]
[1]
  inhibition at 3 µM: 87%
[2]
  inhibition at 10 µM: 100%

## COc1cc2nccc(Oc3ccc(C)nc3-c3cccc(CO)c3)c2cc1OC [Compound r231]
[1]
  inhibition at 3 µM: 100%
[2]
  inhibition at 10 µM: 100%

## COc1cc2nccc(Oc3cc(C)c(C)cc3I)c2cc1OC [Compound r164, 4-(2-Iodo-4,5-dimethyl-phenoxy)-6,7-dimethoxy-quinoline]
[1]
  inhibition at 3 µM: 54%
[2]
  inhibition at 10 µM: 98%

## c1ccc(-c2nc3ncccc3cc2Oc2ncnc3ccsc23)cc1 [Compound 75, 2-Phenyl-3-(thieno[3,2-d]pyrimidin-4-yloxy)-[1,8]naphthyridine]
[5]
  inhibition at 3 µM: 84%
[6]
  inhibition at 10 µM: 98%

## COc1cc2c(Oc3cc(C)c(C)nc3-c3nc(C)c(C)s3)ccnc2cc1OCCCO [Compound r462]
[1]
  inhibition at 3 µM: 99%

## COc1cc2c(Oc3cc4cccnc4nc3-c3ccccc3)ccnc2cc1F [Compound 60, 3-(7-Fluoro-6-methoxy-quinolin-4-yloxy)-2-phenyl-[1,8]naphthyridine]
[5]
  inhibition at 3 µM: 76%
[6]
  inhibition at 10 µM: 100%

## Cc1cc(Oc2ccnc3ccc(-c4ccccc4N)cc23)c(-c2ccccn2)nc1C [Compound 9, 2-[4-(5,6-Dimethyl-[2,2']bipyridin-3-yloxy)-quinolin-6-yl]-phenylamine]
[5]
  inhibition at 3 µM: 87%
[6]
  inhibition at 10 µM: 100%

## COc1cc2nccc(Oc3ccc(C)nc3-c3c(Cl)cccc3Cl)c2cc1OC [Compound r253]
[1]
  inhibition at 3 µM: 68%
[2]
  inhibition at 10 µM: 97%

## COc1cc2nccc(Oc3ccc(C)nc3Cc3ccccc3)c2cc1OC [r214]
[1]
  inhibition at 3 µM: 99%
[2]
  inhibition at 10 µM: 100%

## COc1ccc(Oc2ccnc3cc(OC)c(OC)cc23)c(/C=C/c2ccccc2)c1 [Compound r7, 6,7-Dimethoxy-4-{4-methoxy-2-[(E)-2-phenyl-1-ethenyl]phenoxy}quinoline]
[3]
  inhibition at 3 µM: 13%
[4]
  inhibition at 10 µM: 54%

## Cc1cc(Oc2ccnc3ccc(Cl)cc23)c(-c2ccccn2)nc1C [Compound 156, 3-(6-Chloro-quinolin-4-yloxy)-5,6-dimethyl-[2,2']bipyridine]
[5]
  inhibition at 3 µM: 100%
[6]
  inhibition at 10 µM: 100%

## COc1cc2nccc(Oc3ccc(C)nc3-c3cccc(NC(C)=O)c3)c2cc1OC [Compound r236]
[1]
  inhibition at 3 µM: 90%
[2]
  inhibition at 10 µM: 100%

## COc1cc2nccc(Oc3ccc(Br)cc3C(=O)c3ccccc3)c2cc1OC [Compound r70]
[3]
  inhibition at 3 µM: 73%
[4]
  inhibition at 10 µM: 100%

## CCC(O)c1cc(OC)ccc1Oc1ccnc2cc(OC)c(OC)cc12 (centres unmarked) [Compound r11]
[3]
  inhibition at 3 µM: 28%
[4]
  inhibition at 10 µM: 66%

## Cc1ccc(Oc2ccnc3ccc(OCCN4CCOCC4)cc23)c(-c2ncccn2)n1 [Compound 209, 4-(6-Methyl-2-pyrimidin-2-yl-pyridin-3-yloxy)-6-(2-morpholin-4--yl-ethoxy)-quinoline]
[5]
  inhibition at 3 µM: 54%

## COc1cc(OC)c(C(C)=O)c(Oc2ccnc3cc(OC)c(OC)cc23)c1 [r40]
[3]
  inhibition at 3 µM: 12%
[4]
  inhibition at 10 µM: 83%

## c1ccc(-c2nc3ncccc3cc2Oc2ccnc3ccsc23)cc1 [Compound 71, 2-Phenyl-3-(thieno[3,2-b]pyridin-7-yloxy)-[1,8]naphthyridine]
[5]
  inhibition at 3 µM: 93%
[6]
  inhibition at 10 µM: 100%

## Cc1cc(Oc2ccnc3ccccc23)c(-c2ncccn2)nc1C [Compound 49, 4-(5,6-Dimethyl-2-pyrimidin-2-yl-pyridin-3-yloxy)-quinoline]
[5]
  inhibition at 3 µM: 97%
[6]
  inhibition at 10 µM: 100%

## COc1cc2nccc(Oc3ccc(C)nc3-c3ccc(N(C)C)cc3)c2cc1OC [Compound r247]
[1]
  inhibition at 3 µM: 93%
[2]
  inhibition at 10 µM: 100%

## COc1cc2c(Oc3cc(C)c(C)nc3-c3ccccn3)ccnc2cc1C [Compound 119, 3-(6-Methoxy-7-methyl-quinolin-4-yloxy)-5,6-dimethyl-[2,2']bipyridine]
[5]
  inhibition at 3 µM: 100%
[6]
  inhibition at 10 µM: 100%

## COc1cc2nccc(Oc3cc4ccncc4nc3C)c2cc1OC [Compound 97, 3-(6,7-Dimethoxy-quinolin-4-yloxy)-2-methyl-[1,7]naphthyridine]
[5]
  inhibition at 3 µM: 52%
[6]
  inhibition at 10 µM: 88%

## COc1cc2c(Oc3cc(C)c(C)nc3-c3ccccc3)ccnc2cc1OCc1ccccc1 [Compound r331]
[1]
  inhibition at 3 µM: 73%
[2]
  inhibition at 10 µM: 90%

## COc1cc2c(Oc3cc(C)c(C)nc3-c3ccccn3)ccnc2cc1OCC(CO)CO [Compound r343]
[1]
  inhibition at 3 µM: 93%

## COc1cc2c(Oc3cc(C)c(C)nc3-c3ccc(C)cn3)ccnc2cc1OCc1ccccc1 [Compound r452]
[1]
  inhibition at 3 µM: 67%
[2]
  inhibition at 10 µM: 99%

## CCCOC(=O)c1cc(C(C)=O)ccc1Oc1ccnc2cc(OC)c(OC)cc12 [Compound r95]
[3]
  inhibition at 3 µM: 67%
[4]
  inhibition at 10 µM: 96%

## COc1cc2nccc(Oc3ccc(C)cc3C(=O)c3ccno3)c2cc1OC [Compound r61]
[3]
  inhibition at 3 µM: 61%
[4]
  inhibition at 10 µM: 98%

## COc1ccc(-c2nc(C)ccc2Oc2ccnc3cc(OC)c(OC)cc23)cc1 [Compound r249]
[1]
  inhibition at 3 µM: 52%
[2]
  inhibition at 10 µM: 98%

## COc1cc2nccc(Oc3cc4ccccc4nc3-c3ccncc3)c2cc1OC [r289]
[1]
  inhibition at 3 µM: 80%
[2]
  inhibition at 10 µM: 99%

## COc1cc2nccc(Oc3ccc(C)nc3-c3cc(F)cc(F)c3)c2cc1OC [Compound r254]
[1]
  inhibition at 3 µM: 100%
[2]
  inhibition at 10 µM: 100%

## COc1cc2nccc(Oc3ccc(C)nc3C(OC(C)=O)c3cccc(C)n3)c2cc1OC (centres unmarked) [Compound r219]
[1]
  inhibition at 3 µM: 20%
[2]
  inhibition at 10 µM: 67%

## COc1cc2c(Oc3ccc(C)nc3-c3nccs3)ccnc2cc1O [Compound r329]
[1]
  inhibition at 3 µM: 100%
[2]
  inhibition at 10 µM: 100%

## COc1cc2c(Oc3cc(C)c(C)nc3-c3ccc(C)cn3)ccnc2cc1OCCCl [Compound r466]
[1]
  inhibition at 3 µM: 99%
[2]
  inhibition at 10 µM: 100%

## COc1cc2c(Oc3cc(C)c(C)nc3-c3ccccc3)ccnc2cc1OCC(O)CO (centres unmarked) [Compound r335]
[1]
  inhibition at 3 µM: 100%

## COc1cc2nccc(Oc3ccc(C)nc3-c3cncnc3)c2cc1OC [Compound r265]
[1]
  inhibition at 3 µM: 45%
[2]
  inhibition at 10 µM: 85%

## COc1ccc(Oc2ccnc3cc(OC)c(OC)cc23)c(C=O)c1 [Compound r26]
[3]
  inhibition at 3 µM: 20%
[4]
  inhibition at 10 µM: 73%

## c1ccc(-c2nc3ncccc3cc2Oc2ncnc3sccc23)cc1 [Compound 76, 2-Phenyl-3-(thieno[2,3-d]pyrimidin-4-yloxy)-[1,8]naphthyridine]
[5]
  inhibition at 3 µM: 44%
[6]
  inhibition at 10 µM: 83%
